According to patent EP3800188A1, “SUBSTITUTED PYRAZOLOPYRIMIDINES AS IRAK4 INHIBITORS” (Bayer AG, priority 2019, dated 2021):

Biological target: T1, human IRAK4 (Homo sapiens, UniProt Q9NWZ3)
T1 construct: GST (N); made in house; host or cells: baculovirus-infected Hi5 (BTI-TN-5B1-4) insect cells
T1 sequence (Q9NWZ3 1-460): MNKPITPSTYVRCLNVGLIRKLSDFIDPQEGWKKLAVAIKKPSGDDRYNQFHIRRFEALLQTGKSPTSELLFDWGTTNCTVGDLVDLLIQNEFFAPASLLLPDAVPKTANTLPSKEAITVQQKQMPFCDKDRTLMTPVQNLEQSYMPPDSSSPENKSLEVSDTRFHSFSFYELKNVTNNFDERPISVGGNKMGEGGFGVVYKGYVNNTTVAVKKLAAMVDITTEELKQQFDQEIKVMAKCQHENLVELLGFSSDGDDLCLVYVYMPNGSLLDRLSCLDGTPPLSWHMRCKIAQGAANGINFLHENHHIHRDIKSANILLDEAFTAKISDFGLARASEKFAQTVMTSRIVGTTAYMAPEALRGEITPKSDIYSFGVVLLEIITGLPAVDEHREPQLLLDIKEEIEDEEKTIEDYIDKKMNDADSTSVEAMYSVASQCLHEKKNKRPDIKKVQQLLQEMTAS
Assay: Human IRAK4 kinase activity inhibition assay (IRAK4 TR-FRET assay)
Assay type: biochemical
Settings: 1 mM ATP, GST-human IRAK4, average or median values
Procedure: The IRAK4-inhibitory activity of the inventive substances was measured in the IRAK4 TR-FRET assay (TR-FRET = Time Resolved Fluorescence Resonance Energy Transfer) described hereinafter.
Recombinant fusion protein from N-terminal GST (glutathione S-transferase) and human IRAK4, expressed in baculovirus-infected insect cells (Hi5, BTI-TN-5B1-4, cell line purchased from Invitrogen, catalogue No. B855-02) and purified via affinity chromatography, was used as enzyme. The substrate used for the kinase reaction was the biotinylated peptide biotin-Ahx-[…] (C-terminus in amide form) which can be purchased, for example, from Biosyntan GmbH (Berlin-Buch). For the assay, 11 different concentrations in the range from 20 µM to 0.073 nM were prepared from a 2 mM DMSO solution of the test substance. 50 nl of the respective 100fold concentrated test compound solutions in DMSO were pipetted into a black low-volume 384-well microtitre plate or a black 1536-well microtiter plate (both Greiner Bio-One, Frickenhausen, Germany), 2 µl of a solution of IRAK4 in assay buffer [50 mM HEPES pH 7.5, 5mM MgCl2, 1.0 mM dithiothreitol, 30 µM activated sodium orthovanadate, 0.1% (w/v) of bovine gamma-globulin (BGG) 0.04% (v/v) nonidet-P40 (Sigma)] were added and the mixture was incubated for 15 min to allow prebinding of the substances to the enzyme prior to the kinase reaction. […] The concentration of the IRAK4 was adjusted to the respective activity of the enzyme and set such that the assay was carried out in the linear range. Typical concentrations were in the order of about 0.2 nM. The reaction was stopped by addition of 5 µl of a solution of TR-FRET detection reagents [0.1 µM streptavidin-XL665 (Cisbio Bioassays; France, catalogue No. 610SAXLG)] and 1.5 nM anti-phosphoserine antibody [Merck Millipore, "STK Antibody", catalogue No. 35-002] and 0.6 nM LANCE EU-W1024-labelled anti-mouse-IgG antibody (Perkin-Elmer, product No. AD0077; alternatively, it is possible to use a terbium cryptate-labelled anti-mouse-IgG antibody from Cisbio Bioassays) in aqueous EDTA solution (100 mM EDTA, 0.4 % [w/v] bovine serum albumin [BSA] in 25 mM HEPES pH 7.5). The resulting mixture was incubated at 22°C for 1 h to allow formation of a complex of the biotinylated phosphorylated substrate and the detection reagents. The amount of the phosphorylated substrate was then evaluated by measuring the resonance energy transfer from europium chelate-labelled anti-mouse-IgG antibody to streptavidin-XL665. To this end, the fluorescence emissions at 620 nm and 665 nm were measured after excitation at 350 nm in a TR-FRET measuring instrument, for example a Rubystar (BMG Labtechnologies, Offenburg, Germany) or a Viewlux (Perkin-Elmer). The ratio of the emissions at 665 nm and 622 nm was taken as a measure of the amount of phosphorylated substrate. The data were normalized (enzyme reaction without test substance = 0% inhibition; all other assay components but no enzyme = 100% inhibition).

Row | Compound | IC50 [nM]
1 | CC(C)(O)C1CCN(c2nc(N[C@H]3CCCNC3=O)nc3c2cnn3-c2cccc(C(F)(F)F)c2)CC1 [Example I-11-1, (3S)-3-({4-[4-(2-hydroxypropan-2-yl)piperidin-1-yl]-1-[3-(trifluoromethyl)phenyl]-1H-pyrazolo[3,4-d]pyrimidin-6-yl}amino)piperidin-2-one] | 139
2 | CC(C)(O)C1CCN(c2nc(N[C@@H]3CCCNC3=O)nc3c2cnn3-c2cccc(C(F)(F)F)c2)CC1 [Example I-11-2, (3R)-3-({4-[4-(2-hydroxypropan-2-yl)piperidin-1-yl]-1-[3-(trifluoromethyl)phenyl]-1H-pyrazolo[3,4-d]pyrimidin-6-yl}amino)piperidin-2-one] | 151
3 | CN1CC[C@@H](Nc2nc(N3CCC(C(C)(C)O)CC3)c3cnn(-c4cccc(C(F)(F)F)c4)c3n2)C1 [Example I-13-2, 2-[1-(6-{[(3R)-1-methylpyrrolidin-3-yl]amino}-1-[3-(trifluoromethyl)phenyl]-1H-pyrazolo[3,4-d]pyrimidin-4-yl)piperidin-4-yl]propan-2-ol] | 32.7
4 | CC(C)(O)C1CCN(c2nc(N[C@H]3CCOC3)nc3c2cnn3-c2cccc(C(F)(F)F)c2)CC1 [Example I-16-1, 2-(1-{6-[(3S)-tetrahydrofuran-3-ylamino]-1-[3-(trifluoromethyl)phenyl]-1H-pyrazolo[3,4-d]pyrimidin-4-yl}piperidin-4-yl)propan-2-ol] | 19.4
5 | O=C1C[C@@H](Nc2nc(N3C[C@H](O)[C@@H](O)C3)c3cnn(-c4cccc(C(F)(F)F)c4)c3n2)CN1 [Example I-20-1, (4R)-4-({4-[(3S,4S)-3,4-dihydroxypyrrolidin-1-yl]-1-[3-(trifluoromethyl)phenyl]-1H-pyrazolo[3,4-d]pyrimidin-6-yl}amino)pyrrolidin-2-one] | 278
6 | O=C1C[C@H](Nc2nc(N3C[C@H](O)[C@@H](O)C3)c3cnn(-c4cccc(C(F)(F)F)c4)c3n2)CN1 [Example I-20-2, (4S)-4-({4-[(3S,4S)-3,4-dihydroxypyrrolidin-1-yl]-1-[3-(trifluoromethyl)phenyl]-1H-pyrazolo[3,4-d]pyrimidin-6-yl}amino)pyrrolidin-2-one] | 14.9
7 | CN1CC[C@@H](Nc2nc(N3CCC(CC(C)(C)O)CC3)c3cnn(-c4cccc(C(F)(F)F)c4)c3n2)C1 [Example I-25-1, 2-methyl-1-[1-(6-{[(3R)-1-methylpyrrolidin-3-yl]amino}-1-[3-(trifluoromethyl)phenyl]-1H-pyrazolo[3,4-d]pyrimidin-4-yl)piperidin-4-yl]propan-2-ol] | 40.3
8 | CN1CC[C@H](Nc2nc(N3CCC(CC(C)(C)O)CC3)c3cnn(-c4cccc(C(F)(F)F)c4)c3n2)C1 [Example I-25-2, 2-methyl-1-[1-(6-{[(3S)-1-methylpyrrolidin-3-yl]amino}-1-[3-(trifluoromethyl)phenyl]-1H-pyrazolo[3,4-d]pyrimidin-4-yl)piperidin-4-yl]propan-2-ol] | 12
9 | O=S1(=O)CCN(C2CN(c3nc(N[C@@H]4CCOC4)nc4c3cnn4-c3cccc(C(F)(F)F)c3)C2)CC1 [Example I-26-1, 4-[3-(1,1-dioxidothiomorpholin-4-yl)azetidin-1-yl]-N-[(3R)-tetrahydrofuran-3-yl]-1-[3-(trifluoromethyl)phenyl]-1H-pyrazolo[3,4-d]pyrimidin-6-amine] | 37.3
10 | O=S1(=O)CCN(C2CN(c3nc(N[C@H]4CCOC4)nc4c3cnn4-c3cccc(C(F)(F)F)c3)C2)CC1 [Example I-26-2, 4-[3-(1,1-dioxidothiomorpholin-4-yl)azetidin-1-yl]-N-[(3S)-tetrahydrofuran-3-yl]-1-[3-(trifluoromethyl)phenyl]-1H-pyrazolo[3,4-d]pyrimidin-6-amine] | 57.8

Other lines, results leading:

Row | IC50 [nM] | Compound
11 | 131 | CC(C)(O)C1CCN(c2nc(NC3CCCS(=O)(=O)C3)nc3c2cnn3-c2cccc(C(F)(F)F)c2)CC1 (centres unmarked) [Example I-10, 2-(1-{6-[(1,1-dioxidotetrahydro-2H-thiopyran-3-yl)amino]-1-[3-(trifluoromethyl)phenyl]-1H-pyrazolo[3,4-d]pyrimidin-4-yl)piperidin-4-yl)propan-2-ol]
12 | 51.2 | CC(C)(O)C1CCN(c2nc(N[C@H]3CCNC3=O)nc3c2cnn3-c2cccc(C(F)(F)F)c2)CC1 [Example I-12, (3S)-3-({4-[4-(2-hydroxypropan-2-yl)piperidin-1-yl]-1-[3-(trifluoromethyl)phenyl]-1H-pyrazolo[3,4-d]pyrimidin-6-yl}amino)pyrrolidin-2-one]
13 | 62 | CC(C)(O)C1CCN(c2nc(N[C@@H]3CCNC3=O)nc3c2cnn3-c2cccc(C(F)(F)F)c2)CC1 [Example I-15, (3R)-3-({4-[4-(2-hydroxypropan-2-yl)piperidin-1-yl]-1-[3-(trifluoromethyl)phenyl]-1H-pyrazolo[3,4-d]pyrimidin-6-yl}amino)pyrrolidin-2-one]
14 | 442 | CC(C)(O)C1CCN(c2nc(N[C@@H]3CNC(=O)C3(C)C)nc3c2cnn3-c2cccc(C(F)(F)F)c2)CC1 [Example I-17, (4S)-4-({4-[4-(2-hydroxypropan-2-yl)piperidin-1-yl]-1-[3-(trifluoromethyl)phenyl]-1H-pyrazolo[3,4-d]pyrimidin-6-yl}amino)-3,3-dimethylpyrrolidin-2-one]
15 | 18.4 | CCC1(O)CN(c2nc(N[C@H]3CCN(C)C3)nc3c2cnn3-c2cccc(C(F)(F)F)c2)C1 [Example I-18, 3-ethyl-1-(6-{[(3S)-1-methylpyrrolidin-3-yl]amino}-1-[3-(trifluoromethyl)phenyl]-1H-pyrazolo[3,4-d]pyrimidin-4-yl)azetidin-3-ol]
16 | 27 | CCC1(O)CN(c2nc(NC3CCS(=O)(=O)CC3)nc3c2cnn3-c2cccc(C(F)(F)F)c2)C1 [Example I-19, 1-{6-[(1,1-dioxidotetrahydro-2H-thiopyran-4-yl)amino]-1-[3-(trifluoromethyl)phenyl]-1H-pyrazolo[3,4-d]pyrimidin-4-yl}-3-ethlazetidin-3-ol]
17 | 78 | O=C1C[C@H](Nc2nc(N3CC[C@@H](N4CCOCC4)C3)c3cnn(-c4cccc(C(F)(F)F)c4)c3n2)CN1 [Example I-21, (4S)-4-({4-[(3R)-3-(morpholin-4-yl)pyrrolidin-1-yl]-1-[3-(trifluoromethyl)phenyl]-1H-pyrazolo[3,4-d]pyrimidin-6-yl}amino)pyrrolidin-2-one]
18 | 7.08 | CC(C)(O)CC1CCN(c2nc(N[C@@H]3CNC(=O)C3)nc3c2cnn3-c2cccc(C(F)(F)F)c2)CC1 [Example I-24, (4S)-4-({4-[4-(2-hydroxy-2-methylpropyl)piperidin-1-yl]-1-[3-(trifluoromethyl)phenyl]-1H-pyrazolo[3,4-d]pyrimidin-6-yl}amino)pyrrolidin-2-one]
19 | 23.9 | O=C1C[C@H](Nc2nc(N3CCOCC3)c3cnn(-c4cccc(C(F)(F)F)c4)c3n2)CN1 [Example I-28, (4S)-4-({4-(morpholin-4-yl)-1-[3-(trifluoromethyl)phenyl]-1H-pyrazolo[3,4-d]pyrimidin-6-yl}amino)pyrrolidin-2-one]
20 | 28.7 | O=C1C[C@H](Nc2nc(N3CC(O)C3)c3cnn(-c4cccc(C(F)(F)F)c4)c3n2)CN1 [Example I-32, (4S)-4-({4-(3-hydroxyazetidin-1-yl)-1-[3-(trifluoromethyl)phenyl]-1H-pyrazolo[3,4-d]pyrimidin-6-yl}amino)pyrrolidin-2-one]
